ChEMBL document CHEMBL5352457, “Discovery of orally active 1,4,5,6,8-pentaazaacenaphthylens as novel, selective, and potent covalent BTK inhibitors for the treatment of rheumatoid arthritis” (Eur J Med Chem, 2023)
≈ marks a conversion by molar mass, not a printed value.

Tests used:
physchem [1] = settings: buffer, pH 7.4
in vivo [2] = settings: Sprague-Dawley, rat, iv, 1 mg/kg
in vivo [3] = settings: Sprague-Dawley, rat, po, 10 mg/kg
physchem [4] = settings: buffer, pH 7
in vivo [5] = settings: Sprague-Dawley, rat, iv, 1 mg/kg; remark: listed apart in the source
in vivo [6] = settings: Sprague-Dawley, rat, po, 10 mg/kg; remark: listed apart in the source
in vivo [7] = settings: Sprague-Dawley, rat, plasma, po, 10 mg/kg
in vivo [8] = settings: Sprague-Dawley, rat, po, 10 mg/kg; remark: listed apart in the source
in vivo [9] = settings: Sprague-Dawley, rat, iv, 1 mg/kg; remark: listed apart in the source
in vivo [10] = settings: Sprague-Dawley, rat, po, 10 mg/kg; remark: listed apart in the source

C=CC(=O)N1CC[C@@H](N2N=C(Nc3ccc(Oc4ccccc4)cc3)c3c[nH]c4ncnc2c34)C1
remaining at 24 h (physchem [1]): 80.2%
clearance at 24 h (in vivo [2]): 36.8 mL/min/kg
bioavailability at 24 h (in vivo [3]): 3.6%
solubility (physchem [4]): 174 µM (≈ 81 µg/mL)
Vd at 24 h (in vivo [5]): 1.67 L/kg
AUC at 24 h (in vivo [6]): 164 ng·h/mL
concentration at 1 h (in vivo [7]): 125 nM
Tmax at 24 h (in vivo [8]): 1 h
AUC at 24 h (in vivo [9]): 454 ng·h/mL
Cmax at 24 h (in vivo [10]): 52.5 ng/mL
